In patent US7049311B1, “Pyrrolbenzodiazepines” (Spirogen Limited, priority 1998, dated 2006):

Tests used:
[1] = test system: SF-295; experiment: cells; assay type: cell-based; settings: Homo sapiens, SF-295, 48 h, read-out: LC50
Method: The National Cancer Institute (NCI), Bethesda, Md., USA has available an in vitro cytotoxicity screen which consists of approximately 60 human tumour cell lines against which compounds are tested at a minimum of five concentrations each differing 10-fold. A 48 hour continuous exposure protocol is used, where cell viability or growth is estimated with an SRB protein assay.
The test compounds were evaluated against approximately 60 human tumour cell lines. The NCI screening procedures were described in detail by Monks and co-workers (Monks, A et al., Journal of the National Cancer Institute, 1991, 83, 757). Briefly, cell suspensions were diluted according to the particular cell type and the expected target cell density (5000-40,000 cells per well based on cell growth characteristics), and added by pipette (100 μL) into 96-well microtitre plates. The cells were allowed a preincubation period of 24 hours at 37° C. for stabilisation. Dilutions at twice the intended test concentration were added at time zero in 100 μL aliquots to the wells. The test compounds were evaluated at five 10-fold dilutions (10^−4, 10^−5, 10^−6, 10^−7 and 10^−8 μM). […] A plate reader was used to read the optical densities and a microcomputer processed the readings into LC50 values, which is the dosage required to kill half of the cells.

[2] = test system: M14; experiment: NCI in vitro cytotoxicity screen; assay type: cell-based; settings: Homo sapiens, M14, 48 h, read-out: LC50
Summary of the method: (§1)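 Steps: seed cells (5000-40,000/well), preincubate 24 h, 37° C; add compound at 10^−4, 10^−5, 10^−6, 10^−7, 10^−8 […]; incubate 48 h, 5% CO2, 100% humidity; stain with SRB, read OD; derive LC50.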

[3] = test system: LOX IMVI; experiment: NCI in vitro cytotoxicity screen; assay type: cell-based; settings: Homo sapiens, 48 h, read-out: LC50
Summary of the method: as §1

[4] = test system: NCI-H522; experiment: NCI in vitro cytotoxicity screen; assay type: cell-based; settings: Homo sapiens, NCI-H522, 48 h, read-out: LC50
Summary of the method: as §1

[5] = test system: SK-MEL-2; experiment: NCI in vitro cytotoxicity screen; assay type: cell-based; settings: Homo sapiens, SK-MEL-2, 48 h, read-out: LC50
Summary of the method: as §1

[6] = test system: RXF 393; experiment: NCI in vitro cytotoxicity screen; assay type: cell-based; settings: Homo sapiens, RXF 393, 48 h, read-out: LC50
Summary of the method: as §1

[7] = test system: SK-MEL-28; experiment: NCI in vitro cytotoxicity screen; assay type: cell-based; settings: Homo sapiens, SK-MEL-28, 48 h, read-out: LC50
Summary of the method: as §1

[8] = test system: MALME-3M; experiment: NCI in vitro cytotoxicity screen; assay type: cell-based; settings: Homo sapiens, Malme-3M, 48 h, read-out: LC50
Summary of the method: as §1

[9] = test system: SF-539; experiment: NCI in vitro cytotoxicity screen; assay type: cell-based; settings: Homo sapiens, SF-539, 48 h, read-out: LC50
Summary of the method: as §1

[10] = test system: A2780cisR; experiment: Ovarian carcinoma cytotoxicity assay; assay type: cell-based, human; settings: Homo sapiens, A2780cisR, 96 h, read-out: IC50 A2780cisR, cisplatin-resistant, 96 hours, sulphorhodamine B
Summary of the method: (§2)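 Cells attached overnight, then read 96 hours later by sulphorhodamine B staining of TCA-fixed cells, with absorbance at 540 nm. IC50 taken from concentration versus % absorbance relative to untreated wells; cisR lines are cisplatin-resistant.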

[11] = test system: A2780; experiment: Ovarian carcinoma cytotoxicity assay; assay type: cell-based, human; settings: Homo sapiens, A2780, 96 h, read-out: IC50 A2780, 96 hours, sulphorhodamine B
Summary of the method: as §2

[12] = test system: SKOV-3; experiment: Ovarian carcinoma cytotoxicity assay; assay type: cell-based; settings: Homo sapiens, SK-OV-3, 96 h, read-out: IC50 Skov3, 96 hours, sulphorhodamine B
Summary of the method: as §2

[13] = test system: CH1; experiment: Ovarian carcinoma cytotoxicity assay; assay type: cell-based; settings: Homo sapiens, CH1, 96 h, read-out: IC50 CH1, 96 hours, sulphorhodamine B
Summary of the method: as §2

[14] = test system: CH1cisR; experiment: Ovarian carcinoma cytotoxicity assay; assay type: cell-based; settings: Homo sapiens, CH1cisR, 96 h, read-out: IC50 CH1cisR, cisplatin-resistant, 96 hours, sulphorhodamine B
Summary of the method: as §2

COc1cc2c(cc1OCCC(=O)N1CCCC1)N=C[C@@H]1CCCN1C2=O [UP2005 (161), 3-(7-methoxy-5-oxy(11aS)-2,3,5,11a-tetrahydro-1H-benzo[e]pyrrolo[1,2-a][1,4]diazepin-8-yloxy)-1-perhydro-1-pyrrolyl-1-propanone]
CC50 [1]: 8.8 µM | CC50 [2]: 6.2 µM | CC50 [3]: 9.2 µM | CC50 [4]: 8.7 µM | CC50 [5]: 7.6 µM | CC50 [6]: 6.8 µM | CC50 [7]: 6.5 µM | CC50 [8]: 7.5 µM | CC50 [9]: 7.7 µM | IC50 [10]: 4.3 µM | IC50 [11]: 1.5 µM | IC50 [12]: 5.4 µM | IC50 [13]: 1.4 µM | IC50 [14]: 1.85 µM
